Source: patent US20260022143A1, “Cyclic Peptide Inhibitors of IL-23” (JANSSEN PHARMACEUTICA NV, priority 2022, published 2026)
Starred links: 1 amine or outer side, 2 acyl side, 3 side chain; linkers in the order of their positions; H or OH if unused. Positions of bridges follow the written chain, without caps; N, C: chain ends. Non-standard residues stand in square brackets, D forms with d. Residues, ends and D or L forms follow the SMILES beside them. *: point of attachment. Me3N+(CH2)2O(CH2)2O(CH2)2CO = C[N+](C)(C)CCOCCOCCC(=O)*; CH2CH2OCH2CH2OCH2CH2NMe3+ = C[N+](C)(C)CCOCCOCC*; NH(CH2CH2O)2CH2CH2NMe3+ = C[N+](C)(C)CCOCCOCCN*; Trp(7-Me) = Cc1cccc2c(C[C@H](N)C(=O)O)c[nH]c12; Decanoyl(3,6,9-trioxa) = COCCOCCOCC(=O)*; 2Nal = N[C@@H](Cc1ccc2ccccc2c1)C(=O)O; X24 = C[N+](C)(CCN[*:1])CC(=O)[*:2]; X65 = COCCOCCC[N+](C)(CCCOCCOC)CC*; X22 = CN1CC[N+](C)(CCOCCOCC*)CC1; 3Pal = N[C@@H](Cc1cccnc1)C(=O)O; Lys(Me) = CNCCCC[C@H](N)C(=O)O; Pen = CC(C)(S)[C@H](N)C(=O)O; Thp = NC1(C(=O)O)CCOCC1; X3 = C[N+](C)(C)CCCCC*; X12 = C[N+](C)(C)CCC*; Sar = CNCC(=O)O

What was measured:
IL-23R = biological target: T1, IL-23R (Homo sapiens, UniProt Q5VWK5); assay: IL23R Reporter Assay; format: cell-based; details: HEK293 cells containing IL-23R, IL-12RP1 and STAT-inducible firefly luciferase reporter; 10 ng/mL IL-23 (EC90); 5 h at 37° C.; read-out: IL23R Reporter Assay
T1 construct: host or cells: HEK293
T1 sequence (Q5VWK5 24-629): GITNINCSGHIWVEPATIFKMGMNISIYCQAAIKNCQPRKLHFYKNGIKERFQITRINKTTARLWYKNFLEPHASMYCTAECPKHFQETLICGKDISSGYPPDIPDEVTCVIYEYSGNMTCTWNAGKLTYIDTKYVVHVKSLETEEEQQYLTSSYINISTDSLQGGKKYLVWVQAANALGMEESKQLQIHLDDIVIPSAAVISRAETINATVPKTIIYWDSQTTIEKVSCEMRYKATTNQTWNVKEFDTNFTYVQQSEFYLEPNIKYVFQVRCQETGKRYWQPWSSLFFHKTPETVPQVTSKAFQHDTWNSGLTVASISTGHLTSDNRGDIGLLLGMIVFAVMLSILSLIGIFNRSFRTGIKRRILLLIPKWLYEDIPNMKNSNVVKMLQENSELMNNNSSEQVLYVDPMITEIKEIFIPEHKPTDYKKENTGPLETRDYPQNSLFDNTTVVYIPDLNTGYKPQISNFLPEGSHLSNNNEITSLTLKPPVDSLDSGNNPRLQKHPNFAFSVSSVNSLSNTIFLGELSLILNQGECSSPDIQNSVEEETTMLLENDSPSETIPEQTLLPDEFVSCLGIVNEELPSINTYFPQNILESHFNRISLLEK

[1] = Exposed Polar Surface Area (EPSA); format: physicochemical; details: SFC on Chirex 3014 column; sample 1 mM DMSO stock; read-out: EPSA
Outline: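 Compounds, as 1 mM DMSO stock, were injected in duplicate onto an SFC Chirex 3014 column at 35 °C and eluted with a CO2/methanol (20 mM ammonium formate) gradient. EPSA values in Å^2 were derived from retention times using a linear fit to eight calibration standards, reinjected every 20 compounds.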

SMILES | IC50 (IL-23R) | EPSA [1]
CC(=O)N(C)CCCC[C@@H]1NC(=O)[C@H](Cc2c[nH]c3c(C)cccc23)NC(=O)[C@H]([C@@H](C)O)NC(=O)[C@H](CC(=O)N(C)C)NC(=O)[C@@H](NC(=O)CCOCCOCC[N+](C)(C)C)C(C)(C)SSC(C)(C)[C@@H](C(=O)N[C@@H](Cc2ccc(OCCCCC[N+](C)(C)C)cc2)C(=O)N[C@@H](Cc2ccc3ccccc3c2)C(=O)NC2(C(=O)N[C@@H](CCCCN(C)C(C)=O)C(=O)N[C@@H](CC(N)=O)C(=O)N[C@@H](Cc3cccnc3)C(=O)N(C)CC(=O)NCCOCCOCC[N+](C)(C)C)CCOCC2)NC1=O [compound 220, cPEG3aCO-Pen(3)-N(N(Me)2)-T-7MeW-K(NMeAc)-Pen(3)-TMAPF-2Nal-THP-K(NMeAc)-N-3Pya-Sar-CO(NHPEG3a)] ({Me3N+(CH2)2O(CH2)2O(CH2)2CO}-[Pen]D(NMe2)T[Trp(7-Me)][Lys(Me)](Ac)[Pen]Y(X3)[2Nal][Thp][Lys(Me)](Ac)N[3Pal][Sar]-{NH(CH2CH2O)2CH2CH2NMe3+}; disulfide 1-6) | 1.4 nM | 142 A^2
COCCOCCC[N+](C)(CCCOCCOC)CCOc1ccc(C[C@H](NC(=O)[C@H]2NC(=O)[C@H](CCCCN(C)C(C)=O)NC(=O)[C@H](Cc3c[nH]c4c(C)cccc34)NC(=O)[C@H]([C@@H](C)O)NC(=O)[C@H](CC(=O)N(C)C)NC(=O)[C@@H](NC(=O)CCOCCOCC[N+](C)(C)C)C(C)(C)SSC2(C)C)C(=O)N[C@@H](Cc2ccc3ccccc3c2)C(=O)NC2(C(=O)N[C@@H](CCCCN(C)C(C)=O)C(=O)N[C@@H](CC(N)=O)C(=O)N[C@@H](Cc3cccnc3)C(=O)N(C)CC(=O)N(C)C)CCOCC2)cc1 [compound 221, cPEG3aCO-Pen(3)-N(N(Me)2)-T-7MeW-K(NMeAc)-Pen(3)-AEF(BisMEPa)-2Nal-THP-K(NMeAc)-N-3Pya-Sar-CON(Me)2Â] ({Me3N+(CH2)2O(CH2)2O(CH2)2CO}-[Pen]D(NMe2)T[Trp(7-Me)][Lys(Me)](Ac)[Pen]Y(X65)[2Nal][Thp][Lys(Me)](Ac)N[3Pal][Sar]-NMe2; disulfide 1-6) | 1.8 nM | 134 A^2
CC(=O)N(C)CCCC[C@@H]1NC(=O)[C@H](Cc2c[nH]c3c(C)cccc23)NC(=O)[C@H]([C@@H](C)O)NC(=O)[C@H](CC(=O)N(C)C)NC(=O)[C@@H](NC(=O)CCOCCOCC[N+](C)(C)C)C(C)(C)SSC(C)(C)[C@@H](C(=O)N[C@@H](Cc2ccc(OCCOCCOCC[N+]3(C)CCN(C)CC3)cc2)C(=O)N[C@@H](Cc2ccc3ccccc3c2)C(=O)NC2(C(=O)N[C@@H](CCCCN(C)C(C)=O)C(=O)N[C@@H](CC(N)=O)C(=O)N[C@@H](Cc3cccnc3)C(=O)N(C)CC(=O)N(C)C)CCOCC2)NC1=O [compound 224, cPEG3aCO-Pen(3)-N(N(Me)2)-T-7MeW-K(NMeAc)-Pen(3)-MPzPEG3F-2Nal-THP-K(NMeAc)-N-3Pya-Sar-CON(Me)2] ({Me3N+(CH2)2O(CH2)2O(CH2)2CO}-[Pen]D(NMe2)T[Trp(7-Me)][Lys(Me)](Ac)[Pen]Y(X22)[2Nal][Thp][Lys(Me)](Ac)N[3Pal][Sar]-NMe2; disulfide 1-6) | 3 nM | 139 A^2
COCCOCCOCC(=O)NCC[N+](C)(C)CC(=O)N[C@@H]1C(=O)N[C@@H](CC(=O)N(C)C)C(=O)N[C@@H]([C@@H](C)O)C(=O)N[C@@H](Cc2c[nH]c3c(C)cccc23)C(=O)N[C@@H](CCCCN(C)C(C)=O)C(=O)N[C@H](C(=O)N[C@@H](Cc2ccc(OCCOCCOCC[N+](C)(C)C)cc2)C(=O)N[C@@H](Cc2ccc3ccccc3c2)C(=O)NC2(C(=O)N[C@@H](CCCCN(C)C(C)=O)C(=O)N[C@@H](CC(N)=O)C(=O)N[C@@H](Cc3cccnc3)C(=O)N(C)CC(=O)N(C)C)CCOCC2)C(C)(C)SSC1(C)C [compound 225, mPEG3CO-SP6-Pen(3)-N(N(Me)2)-T-7MeW-K(NMeAc)-Pen(3)-APEG3F-2Nal-THP-K(NMeAc)-N-3Pya-Sar-CON(Me)2] ({Decanoyl(3,6,9-trioxa)}-[X24][Pen]D(NMe2)T[Trp(7-Me)][Lys(Me)](Ac)[Pen]Y(CH2CH2OCH2CH2OCH2CH2NMe3+)[2Nal][Thp][Lys(Me)](Ac)N[3Pal][Sar]-NMe2; disulfide 2-7) | 4.1 nM | 136 A^2
CC(=O)N(C)CCCC[C@@H]1NC(=O)[C@H](Cc2c[nH]c3c(C)cccc23)NC(=O)[C@H]([C@@H](C)O)NC(=O)[C@H](CC(=O)N(C)C)NC(=O)[C@@H](NC(=O)CCOCCOCC[N+](C)(C)C)C(C)(C)SSC(C)(C)[C@@H](C(=O)N[C@@H](Cc2ccc(OCCC[N+](C)(C)C)cc2)C(=O)N[C@@H](Cc2ccc3ccccc3c2)C(=O)NC2(C(=O)N[C@@H](CCCCN(C)C(C)=O)C(=O)N[C@@H](CC(N)=O)C(=O)N[C@@H](Cc3cccnc3)C(=O)N(C)CC(=O)N(C)C)CCOCC2)NC1=O [compound 229, cPEG3aCO-Pen(3)-N(N(Me)2)-T-7MeW-K(NMeAc)-Pen(3)-TMA3F-2Nal-THP-K(NMeAc)-N-3Pya-Sar-CON(Me)2] ({Me3N+(CH2)2O(CH2)2O(CH2)2CO}-[Pen]D(NMe2)T[Trp(7-Me)][Lys(Me)](Ac)[Pen]Y(X12)[2Nal][Thp][Lys(Me)](Ac)N[3Pal][Sar]-NMe2; disulfide 1-6) | 19 nM | 145 A^2
CC(=O)N[C@H](COCCOCC[N+](C)(C)C)C(=O)N[C@@H]1C(=O)N[C@@H](CC(=O)N(C)C)C(=O)N[C@@H]([C@@H](C)O)C(=O)N[C@@H](Cc2c[nH]c3c(C)cccc23)C(=O)N[C@@H](CCCCN(C)C(C)=O)C(=O)N[C@H](C(=O)N[C@@H](Cc2ccc(OCCOCCOCC[N+](C)(C)C)cc2)C(=O)N[C@@H](Cc2ccc3ccccc3c2)C(=O)NC2(C(=O)N[C@@H](CCCCN(C)C(C)=O)C(=O)N[C@@H](CC(N)=O)C(=O)N[C@@H](Cc3cccnc3)C(=O)N(C)CC(=O)N(C)C)CCOCC2)C(C)(C)SSC1(C)C [compound 232, MeCO-APEG2ser-Pen(3)-N(N(Me)2)-T-7MeW-K(NMeAc)-Pen(3)-APEG3F-2Nal-THP-K(NMeAc)-N-3Pya-Sar-CON(Me)2] | 3.4 nM | 140 A^2
CC(=O)NCCCC[C@H](NC(=O)C1(NC(=O)[C@H](Cc2ccc3ccccc3c2)NC(=O)[C@H](Cc2ccc(OCCOCCOCC[N+](C)(C)C)cc2)NC(=O)[C@H]2NC(=O)[C@H](CCCCN(C)C(C)=O)NC(=O)[C@H](Cc3c[nH]c4c(C)cccc34)NC(=O)[C@H]([C@@H](C)O)NC(=O)[C@H](CC(=O)N(C)C)NC(=O)[C@@H](NC(=O)CCOCCOCC[N+](C)(C)C)C(C)(C)SSC2(C)C)CCOCC1)C(=O)N[C@@H](CC(N)=O)C(=O)N[C@@H](Cc1cccnc1)C(=O)N(C)CC(=O)N(C)C [compound 233, cPEG3aCO-Pen(3)-N(N(Me)2)-T-7MeW-K(NMeAc)-Pen(3)-APEG3F-2Nal-THP-K(Ac)-N-3Pya-Sar-CON(Me)2] ({Me3N+(CH2)2O(CH2)2O(CH2)2CO}-[Pen]D(NMe2)T[Trp(7-Me)][Lys(Me)](Ac)[Pen]Y(CH2CH2OCH2CH2OCH2CH2NMe3+)[2Nal][Thp]K(Ac)N[3Pal][Sar]-NMe2; disulfide 1-6) | 3 nM | 141 A^2
